Literature values as cited in patent US20040087563A1, “Hormone replacement therapy with cardiovascular protection using antialdosteronic progestins” (priority 2002, published 2004).

What was measured:
[1] = system: renin-angiotensin-aldosterone system; details: healthy female volunteers
[2] = biological target: T1, mineralocorticoid receptor (Homo sapiens, UniProt P08235); details: compared with spironolactone
T1 sequence (P08235 1-984): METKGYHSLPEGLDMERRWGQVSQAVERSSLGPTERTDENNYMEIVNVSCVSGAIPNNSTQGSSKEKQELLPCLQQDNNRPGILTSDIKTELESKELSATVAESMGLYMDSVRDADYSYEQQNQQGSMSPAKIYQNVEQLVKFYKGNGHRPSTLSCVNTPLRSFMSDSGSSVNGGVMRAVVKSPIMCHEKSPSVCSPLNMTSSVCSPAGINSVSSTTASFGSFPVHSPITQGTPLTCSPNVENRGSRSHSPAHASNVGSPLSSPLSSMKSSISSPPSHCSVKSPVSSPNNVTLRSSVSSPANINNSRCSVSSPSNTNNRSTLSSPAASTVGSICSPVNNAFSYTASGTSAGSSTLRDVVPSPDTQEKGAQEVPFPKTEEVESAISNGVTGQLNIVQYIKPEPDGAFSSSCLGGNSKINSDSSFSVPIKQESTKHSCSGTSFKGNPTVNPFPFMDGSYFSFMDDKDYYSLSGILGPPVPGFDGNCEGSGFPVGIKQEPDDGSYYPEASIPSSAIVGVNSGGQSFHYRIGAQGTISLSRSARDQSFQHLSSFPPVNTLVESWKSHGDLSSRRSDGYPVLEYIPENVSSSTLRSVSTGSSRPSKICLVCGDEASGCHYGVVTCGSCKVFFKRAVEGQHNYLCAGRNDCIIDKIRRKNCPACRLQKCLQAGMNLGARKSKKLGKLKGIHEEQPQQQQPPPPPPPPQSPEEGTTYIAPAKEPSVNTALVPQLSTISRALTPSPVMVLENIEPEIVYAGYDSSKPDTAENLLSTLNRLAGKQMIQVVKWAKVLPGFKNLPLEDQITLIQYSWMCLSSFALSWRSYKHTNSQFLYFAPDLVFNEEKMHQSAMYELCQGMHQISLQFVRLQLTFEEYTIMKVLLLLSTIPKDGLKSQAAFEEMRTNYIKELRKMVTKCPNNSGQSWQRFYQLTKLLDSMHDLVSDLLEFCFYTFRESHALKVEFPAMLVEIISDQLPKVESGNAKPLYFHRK

[3] = patients with severe heart failure already receiving ACE inhibitor therapy

Q: Which plasma aldosterone levels [1] does the source give for `C[C@]12CCC(=O)C=C1[C@@H]1C[C@@H]1[C@H]1[C@@H]3[C@@H]4C[C@@H]4[C@@]4(CCC(=O)O4)[C@@]3(C)CC[C@@H]12` [Drospirenone, 6β,7β;15β;16β-dimethylene-3-oxo-17α-preg-4-ene-21, 17-carbolactone] here?
A: increased

Q: What about the “potency relative to spironolactone (antimineralocorticoid activity)” value [2] of the same compound?
A: about 8 times

Q: With `CC(=O)S[C@@H]1CC2=CC(=O)CC[C@]2(C)[C@H]2CC[C@@]3(C)[C@@H](CC[C@@]34CCC(=O)O4)[C@H]12` [Spironolactone, 17-hydroxy-7-alpha-mercapto-3-oxo-17-alpha-pregn-4-ene-21-carboxylic acid gamma-lactone acetate] as the compound, how does the morbidity and mortality [3] read?
A: decrease the morbidity and mortality
